Measurements from patent US20140155445A1, “Compounds and Methods for Treating Cancer and Diseases of the Central Nervous System” (Osta Biotechnologies Inc., priority 2007, published 2014).
“Also recorded” adds a separate entry of the source. Like-named read-outs stand apart in the source and are kept apart here.

What was measured:
[1] = system: SKMEL-V human melanoma cells; assay: Human melanoma model SKMEL-V+ in SCID mice (pilot study); type: in vivo
Text: Human melanoma cells (“SKMEL-V cells”) were derived from SKMEL-24 cells (ATCC) by over expression of mouse VEGF.
Only those cells with >95% viability were used for in-vivo studies.
Once tumors reached a size of approximately 0.7 cm^3, they were removed under sterile condition, sliced into small pieces under a stereo-microscope. Each tissue piece was then reinoculated subcutaneously. Only pieces of approximately the same size and with no signs of necrosis were used.
At the end of the experiment, mice were sacrificed by cervical dislocation and full autopsies were conducted. A picture was taken of tumors from randomly selected mice. The tumors were then fixed in formalin for pathology examination.

[2] = system: human pancreatic tumor cells; assay: Cell proliferation, [3H]thymidine incorporation, human pancreatic tumor cells; type: cell-based; conditions: 6.5 μM, 18 h
[3] = Pharmacokinetic evaluation of QC-199 in mouse plasma and brain, IP or oral; type: in vivo; conditions: for half-life: from Lambda z; for AUC: read-out: AUCall (0-12); for Cmax: mouse, male CD-1 mice
Method: Regular male CD1 mice, 6 weeks old, were obtained from Charles River Laboratories, St. Zotique, PQ, Canada. The mice weighed 22-28 g. The experiments were approved by the Animal Care Committee, McGill University, Montreal, Quebec. The animals were housed in individual cages and were fed standard rodent chow and water ad libitum. Mice weights were measured with a digital balance accurate to 0.05 g and then received QC-199 at the indicated doses either orally, or via i.p. injections or following i.v. slow infusion. In the case of i.v. injection or i.v. infusion, mice were anesthetized using isoflurane-based system (DISPOMED, MODUFLEX COMPACT NRB, 3975-0800-000). For the infusion, a mini pump (NE-1800, New Era Pump Systems, Inc.) was used to infuse the compound via the tail vein during a 2 h period. In one study, blood and brain tissue samples were collected at various time points after administration of QC-199 using EDTA tubing (Das Original S-Monovette EDTA KE/1.2 ml lot.9094102 and Needle for S-Monovette 22G lot. 8073401) via cardiac puncture and immediately stored at 4° C. Serum was collected after the samples were centrifuged 2200×, 4° C. for 20 minutes and stored at −80° C. until analysis. For the brain tissue collection, skin of mice was removed and brain was carefully dissected out from the skull, transferred into a Petri dish, briefly washed with ice-cold phosphate-buffered saline (PBS), and immediately stored at −80° C. until further analysis.
The assay of QC-199 in mouse plasma and brain samples was carried out using qualified LC/MS/MS assay methods.

APPswe/PS1dE9 mice = assay: Behavioral studies (maze, fear conditioning) in APPswe/PS1dE9 mice; type: in vivo, mouse
Method: The experiments were performed at Pennington Biomedical Research Centre (PBRC) of Lousiana State University, Baton Rouge, Lousiana and were approved by the Institutional Animal Care and Use Committee (IACUC) of PBRC.
The APPswe/PS1dE9 mice were generated against a C57/BL6J background by breeding either +/+ males or females with −/− females or males, respectively.
Memantine (10 mg/kg) and both doses of QC-199 (15 mg/kg & 30 mg/kg) were prepared in batches and frozen for later use. Each compound was weighed and dissolved in injectable sterile saline solution. Memantine was prepared at a concentration of 1 mg/ml, the 15 mg/kg dose of QC-199 at a volume of 15 mg/10 ml, and the 30 mg/kg dose of QC-199 at a volume of 30 mg/10 ml. The compounds were prepared in this volume so that the mice could easily be injected based on their body weight, e.g., a 35 gram mouse was injected with 0.35 ml dosing solution.
Memantine and QC-199 dosing solutions were administered to mice via i.p. injections. The mice were weighed 3 times/week and were injected with a volume that matched their body weight. The mice were injected daily and the injection located was alternated each day to avoid potential complications from injection in the same location on a daily basis.
After reaching their respective treatment duration, the wild type and APP/PS1 double transgenic mice were run through the STM and fear conditioning. The STM consisted of one day of straight run training (running down an alley from the start box to the goal box). This phase was implemented to establish the contingency that moving forward would provide escape into the dark and dry goal box. The mice were required to reach a criterion of completing the straight run in 15 sec or less on 7 out of 9 trials over a maximum of 15 trials. […] The following day each mouse was administered 15 trials in the STM with approximately 7-10 min between each trial where they were placed into a holding cage with a towel. The latency to reach the goal box and the number of errors committed were the dependent measures of learning. However, in our experience, errors committed is much more indicative of learning and is reported for this project. Pictures of the straight run (A) and maze (B) are shown in FIG. 42, along with a schematic (C) of the maze indicating the correct path. The data from the maze was collapsed into blocks of 5 trials for data summary and presentation.
Med Associates Inc.'s MED-VFC-NIR-M NIR Video Fear Conditioning System for Mouse, Pavlovian fear conditioning was conducted after the STM. On Day 1 the mice were placed in Context 1 and given 5 tone+shock pairings. On day 2 the mice were placed back into Context 1 and their freezing response to being placed back into the original context where fear conditioning occurred was measured. Freezing is operationally defined as the cessation of all movement except that required for respiration. Freezing was measured over 10 minutes, and data were summarized in 1-min intervals. On day 3 the mice were placed into a novel context (Context 2) for 10 min. […] For the final 5 min, the tone paired with shock during fear conditioning was presented. Again, the data was summarized in 1-min intervals.
Maze data was analyzed by two-way ANOVAs to determine treatment group effects for both errors and run time after the data was collapsed into three 5 trial blocks. Planned comparisons of transgenic mice treated with saline with each of the drug treatments, memantine or QC-199 at 15 mg/kg/day and 30 mg/kg/day were conducted to evaluate group differences in the maze at each trial block and both tone and contextual fear conditioning tests. The critical a level was set at 0.05 for all statistical tests. The values in FIGS. 46A-46C represent the means±S.E.M. The data was analyzed using the SPSS statistical program version 11.0. […]

Brc1ccc(CCC2(Cn3ccnc3)OCCO2)cc1.Cl [QC-56, 1-((2-(2-(4-Bromophenyl)ethyl)-1,3-dioxolan-2-yl)methyl)-1H-imidazole hydrochloride]
anti-tumor activity ([1]; 30 and 60 mg/kg i.p.): clear anti-tumor activity | tumor volumes vs vehicle alone ([1]; QC-56 30 mg/kg (P<0.03) and 60 mg/kg (P<0.02)): statistically significantly smaller | potency compared with dacarbazine ([1]; QC-56 30 and 60 mg/kg vs dacarbazine 50 mg/kg): significantly more potent than dacarbazine | effect of hHO-1 transfection on 3H-thymidine incorporation ([2]; hHO-1-transfected human pancreatic tumor cells): significantly attenuated | 3H-thymidine incorporation vs untreated cells ([2]; non-transfected human pancreatic tumor cells, hydrochloride): significantly attenuated; also recorded: marked reduction

Brc1ccc(CCCCn2ccnc2)cc1.Cl [QC-199, 1-[4-(4-bromophenyl)butyl]-1H-imidazole hydrochloride]
% Extrapolated AUC ([3]; brain, IP 60 mg/kg): 13% | AUC(0-inf) ([3]; brain, IP 60 mg/kg): 427 µg·h/g | AUCall (0-12) ([3]; brain, IP 60 mg/kg): 370 µg·h/g | % Extrapolated AUC ([3]; brain, Oral 60 mg/kg): 37% | AUC(0-inf) ([3]; brain, Oral 60 mg/kg): 361 µg·h/g | AUCall (0-12) ([3]; brain, Oral 60 mg/kg): 227 µg·h/g | oral bioavailability ([3]; from oral-to-IP AUC ratios in brain and plasma): moderately high oral bioavailability | concentration at 5 min ([3]; male, CD-1, mouse, brain, 60 mg/kg, IP or oral administration, above the upper calibration range, read-out: brain tissue concentration at 5 min post-dose): > 10000 ng/g | half-life ([3]; male, CD-1, mouse, in vivo, ip, 60 mg/kg, brain, IP 60 mg/kg): 4.3 h | half-life ([3]; male, CD-1, mouse, in vivo, ip, 60 mg/kg, plasma, IP 60 mg/kg): 4.8 h | half-life ([3]; male, CD-1, mouse, in vivo, po, 60 mg/kg, brain, Oral 60 mg/kg): 8.6 h | half-life ([3]; male, CD-1, mouse, in vivo, po, 60 mg/kg, plasma, Oral 60 mg/kg): 7.1 h | Tmax ([3]; male, CD-1, mouse, in vivo, brain, IP 60 mg/kg): 0.167 h | Tmax ([3]; male, CD-1, mouse, in vivo, brain, Oral 60 mg/kg): 0.167 h | AUC(0-inf) ([3]; male, CD-1, mouse, in vivo, plasma, IP 60 mg/kg, read-out: AUC0-inf): 85000 ng·h/mL | AUC ([3]; male, CD-1, mouse, in vivo, plasma, IP 60 mg/kg): 72000 ng·h/mL | AUC(0-inf) ([3]; male, CD-1, mouse, in vivo, plasma, Oral 60 mg/kg, read-out: AUC0-inf): 67000 ng·h/mL | AUC ([3]; male, CD-1, mouse, in vivo, plasma, Oral 60 mg/kg): 47000 ng·h/mL | Cmax ([3]; in vivo, brain, IP 60 mg/kg): 79000 ± 2200 ng/g | Cmax ([3]; in vivo, brain, Oral 60 mg/kg): 39000 ± 2700 ng/g | Cmax ([3]; in vivo, plasma, IP 60 mg/kg): 20000 ± 1200 ng/mL | Cmax ([3]; in vivo, plasma, Oral 60 mg/kg): 9100 ± 800 ng/mL | AUC_%Extrap_obs ([3]; plasma, IP 60 mg/kg): 16% | AUC_%Extrap_obs ([3]; plasma, Oral 60 mg/kg): 30% | effect on maze errors and contextual fear conditioning (summary) (APPswe/PS1dE9 mice; Memantine, QC-199 15 mg/kg and 30 mg/kg, dtg mice): positive effect | maze errors vs saline-treated APP/PS1 mice (APPswe/PS1dE9 mice; QC-199 30 mg/kg/day i.p., trend at Trial Block 3 (p=0.052)): did not exhibit improved performance at any of the Trial Blocks | contextual fear conditioning (freezing) vs saline-treated APP/PS1 mice (APPswe/PS1dE9 mice; QC-199 15 and 30 mg/kg/day, Memantine 10 mg/kg, Time Blocks 1-4): none reached significance
